From patent publication US20230233736A1, “ANTIMICROBIAL FORMULATIONS COMPRISING SILICONE” (AMICOAT AS, priority 2020, published 2023)
≈ marks a conversion by molar mass, not a printed value. Where a SMILES comes first, the peptide text is derived from it. The star is where a group is joined. NHPhenethyl = c1ccc(CCN*)cc1

What was measured:
Bacteroides fragilis = test: MIC microbroth dilution (CLSI); assay type: cell-based; design: unit not given beside the values; details: ATCC 25285; SBB
Cryptococcus neoformans = test: MIC microbroth dilution (CLSI); assay type: cell-based; details: G.R. Micro collection
Salmonella sp = test: MIC microbroth dilution (CLSI); assay type: cell-based
Text: (§1) Cation-adjusted Mueller-Hinton broth (Oxoid Ltd., Basingstoke, UK and Trek Diagnostic Systems Ltd., East Grinstead, UK) (supplemented with 5% laked horse blood for Streptococcus spp., Corynebacterium jeikeium and Listeria monocytogenes) was used for aerobic bacteria, with an initial inoculum of approximately 10^5 colony-forming units (CFU)/m L.

Enterococcus gallinarum = test: MIC microbroth dilution (CLSI); assay type: cell-based; details: vancomycin-resistant (VanC) clinical isolate
Text: as §1

Shigella sp = test: MIC microbroth dilution (CLSI); assay type: cell-based; details: antibiotic-susceptible clinical isolate
Text: as §1

[1] = system: Stenotrophomonas maltophilia; test: MIC microbroth dilution (CLSI); assay type: cell-based; details: antibiotic-susceptible clinical isolate
Text: as §1

[2] = system: Staphylococcus saprophyticus; test: MIC microbroth dilution (CLSI); assay type: cell-based; details: antibiotic susceptible clinical isolate
Text: as §1

Listeria monocytogenes = test: MIC microbroth dilution (CLSI); assay type: cell-based; details: antibiotic-susceptible clinical isolate
Text: as §1

Acinetobacter baumanii = test: MIC microbroth dilution (CLSI); assay type: cell-based; design: unit not given beside the values; details: antibiotic-susceptible clinical isolate
Text: as §1

[3] = system: Methicillin resistant Staphylococcus epidermidis (MRSE) strain ATCC 27626; details: for MIC: MRSE ATCC 27626; for MRSE: Table 5, strain ATCC 27626
[4] = system: Trichophyton mentagrophytes; test: MIC microbroth dilution (CLSI); assay type: cell-based; details: G.R. Micro collection
Clostridium difficile = test: MIC microbroth dilution (CLSI); assay type: cell-based; design: unit not given beside the values; details: antibiotic-susceptible clinical isolate
Microsporum canis = test: MIC microbroth dilution (CLSI); assay type: cell-based; details: G.R. Micro collection
Streptococcus pyogenes = assay type: cell-based; details: Macrolide (M-type) resistance clinical isolate
Text: as §1

Candida tropicalis = test: MIC microbroth dilution (CLSI); assay type: cell-based; details: ATCC750 - reference strain
[5] = system: Trichophyton interdigitale; test: MIC microbroth dilution (CLSI); assay type: cell-based; details: G.R. Micro collection
Aspergillus niger = test: MIC microbroth dilution (CLSI); assay type: cell-based; details: G.R. Micro collection
[6] = system: Methicillin resistant Staphylococcus aureus (MRSA) strain ATCC 33591; details: for MIC: MRSA ATCC 33591; for MRSA: Table 5, strain ATCC 33591
[7] = system: Staphylococcus aureus, strain ATCC 25923; details: for MIC: S. aureus ATCC 25923; for S. aureus: Table 5, strain ATCC 25923
Eggerthella lenta = test: MIC microbroth dilution (CLSI); assay type: cell-based; design: unit not given beside the values; details: ATCC 43055; SBB
S. pyogenes = test: Antimicrobial assay, Table 5; assay type: cell-based
C. albicans = test: Antimicrobial assay, Table 5; assay type: cell-based
trypsin = test: in vitro; assay type: in vitro ADME; details: pH 8.6
Method: Each peptide was dissolved in a 0.1 M NH4HCO3 buffer (pH 6.5) to yield a final peptide concentration of 1 mg/ml. A trypsin solution was prepared by dissolving 1 mg of trypsin in 50 ml 0.1 M NH4HCO3 buffer (pH 8.2). For the stability determination, 250 μl freshly made trypsin solution and 250 μl peptide solution were incubated in 2 ml of 0.1 M NH4HCO3 buffer (pH 8.6) at 37° C. on a rocking table. Aliquots of 0.5 ml were sampled at different time intervals, diluted with 0.5 ml water:acetonitrile (60:40 v/v) containing 1% TFA and analysed by RP-HPLC as described above. Samples without trypsin addition taken at 0 h and after 20 h at 37° C. were used as negative controls. Integration of the peak area at 254 nm for samples taken during the first 5 hours of the assay was used to generate the […].

E. coli = test: Antimicrobial assay, Table 5; assay type: cell-based
P. aeruginosa = test: Antimicrobial assay, Table 5; assay type: cell-based

Structure (SMILES) | MIC [3] | MIC [6] | MRSE [3] | S. pyogenes (S. pyogenes) | C. albicans (C. albicans) | MRSA [6] | S. aureus [7] | also measured
N=C(N)NCCCC(N)C(=O)NC(Cc1ccc(-c2ccc3ccccc3c2)cc1)C(=O)NC(CCCNC(=N)N)C(=O)NCCc1ccccc1 (stereo not shown) [Compound 1] | <3 µM | <3 µM |  |  |  |  |  | MIC (Bacteroides fragilis): 64; MIC (Cryptococcus neoformans): 4; MIC (Salmonella sp; antibiotic-susceptible clinical isolate): 16; MIC (Salmonella sp; multi-drug resistant clinical isolate): 16; MIC (Enterococcus gallinarum): 4; MIC (Shigella sp): 32; MIC [1]: 64; MIC [2]: 1; MIC (Listeria monocytogenes): 32; MIC (Acinetobacter baumanii): 64; MIC [4]: 16; MIC (Clostridium difficile): 32; MIC (Microsporum canis): 8; MIC (Streptococcus pyogenes): 32; MIC (Candida tropicalis): 2; MIC [5]: 8; MIC (Aspergillus niger): 4; MIC [7]: 4 µM (≈ 2.83 µg/mL); MIC (Eggerthella lenta): 16
CC(C)(C)c1cc(C(C)(C)C)c2[nH]c(C(C)(C)C)c(C[C@H](NC(=O)[C@@H](N)CCCNC(=N)N)C(=O)N[C@@H](CCCNC(=N)N)C(=O)NC3CCCCC3)c2c1 [Compound 13] |  |  | 2 mg/L | <2 mg/L | 10 mg/L | 2 mg/L | <2 mg/L | 
CCCCNC(=O)[C@H](CCCNC(=N)N)NC(=O)[C@H](Cc1c(C(C)(C)C)[nH]c2c(C(C)(C)C)cc(C(C)(C)C)cc12)NC(=O)[C@@H](N)CCCNC(=N)N [Compound 9] |  |  | <2 mg/L | 2 mg/L | 10 mg/L | 3 mg/L | 2 mg/L | 
N=C(N)NCCC[C@H](NC(=O)C(Cc1ccc(-c2ccc(-c3ccccc3)cc2)cc1)NC(=O)[C@@H](N)CCCNC(=N)N)C(=O)NCCc1ccccc1 (stereo partly shown) [Compound 5] | 3 µM (≈ 2.2 µg/mL) | 3 µM (≈ 2.2 µg/mL) |  |  |  |  |  | half-life at 0.1 mg/ml (trypsin): > 24 h; MIC [7]: 5 µM (≈ 3.66 µg/mL)
CCCNC(=O)[C@H](CCCNC(=N)N)NC(=O)[C@H](Cc1c(C(C)(C)C)[nH]c2c(C(C)(C)C)cc(C(C)(C)C)cc12)NC(=O)[C@@H](N)CCCNC(=N)N [Compound 10] |  |  | <2 mg/L | 2 mg/L | 10 mg/L | 3 mg/L | 2 mg/L | 
N=C(N)NCCC[C@H](NC(=O)C(Cc1ccc(-c2cccc3ccccc23)cc1)NC(=O)[C@@H](N)CCCNC(=N)N)C(=O)NCCc1ccccc1 (stereo partly shown) [Compound 3] |  |  |  |  |  |  |  | half-life at 0.1 mg/ml (trypsin): 20 h
CC(C)CNC(=O)[C@H](CCCNC(=N)N)NC(=O)[C@H](Cc1c(C(C)(C)C)[nH]c2c(C(C)(C)C)cc(C(C)(C)C)cc12)NC(=O)[C@@H](N)CCCNC(=N)N [Compound 12] |  |  | 2 mg/L | 2 mg/L | 10 mg/L | 3 mg/L | <2 mg/L | 
N=C(N)NCCC[C@H](NC(=O)[C@H](Cc1c[nH]c2ccccc12)NC(=O)[C@@H](N)CCCNC(=N)N)C(=O)NCCc1ccccc1 [Compound 6, reference compound] (H-Arg-Trp-Arg-NHPhenethyl) | 81 µM (≈ 50.2 µg/mL) | 97 µM (≈ 60.1 µg/mL) |  |  |  |  |  | MIC [7]: 145 µM (≈ 89.9 µg/mL)
CCCCCCCCCCCCCCCCNC(=O)[C@H](CCCNC(=N)N)NC(=O)[C@H](Cc1c(C(C)(C)C)[nH]c2c(C(C)(C)C)cc(C(C)(C)C)cc12)NC(=O)[C@@H](N)CCCNC(=N)N [Compound 11] |  |  | 4 mg/L | 6 mg/L | >100 mg/L | 4 mg/L | 5 mg/L | E. coli (E. coli): >100 mg/L; P. aeruginosa (P. aeruginosa): >100 mg/L
CC(C)(C)c1cc(C(C)(C)C)c2[nH]c(C(C)(C)C)c(C[C@H](NC(=O)[C@@H](N)CCCCN)C(=O)N[C@@H](CCCCN)C(=O)NCCc3ccccc3)c2c1 [Compound 4] | <2 µM | 3 µM (≈ 2.2 µg/mL) |  |  |  |  |  | half-life at 0.1 mg/ml (trypsin): > 24 h
CC(C)(C)c1cc(C(C)(C)C)c2[nH]c(C(C)(C)C)c(C[C@H](NC(=O)[C@@H](N)CCCNC(=N)N)C(=O)N[C@@H](CCCNC(=N)N)C(=O)NC3CCCC3)c2c1 [Compound 14] |  |  | <2 mg/L | 2 mg/L | 10 mg/L | >15 mg/L | <2 mg/L | 
